How the values were obtained:
human LXRβ = target: T1, human LXRβ (Homo sapiens, UniProt P55055); assay: Ligand-binding test procedure for human LXRβ (3H T0901317 tracer, flash plates); conditions: biotinylated hLXRβ, tracer 3H T0901317, +4° C. over night
T1 construct: biotin (biotinylated); made in house; host or cells: E. coli
T1 sequence (P55055 1-460): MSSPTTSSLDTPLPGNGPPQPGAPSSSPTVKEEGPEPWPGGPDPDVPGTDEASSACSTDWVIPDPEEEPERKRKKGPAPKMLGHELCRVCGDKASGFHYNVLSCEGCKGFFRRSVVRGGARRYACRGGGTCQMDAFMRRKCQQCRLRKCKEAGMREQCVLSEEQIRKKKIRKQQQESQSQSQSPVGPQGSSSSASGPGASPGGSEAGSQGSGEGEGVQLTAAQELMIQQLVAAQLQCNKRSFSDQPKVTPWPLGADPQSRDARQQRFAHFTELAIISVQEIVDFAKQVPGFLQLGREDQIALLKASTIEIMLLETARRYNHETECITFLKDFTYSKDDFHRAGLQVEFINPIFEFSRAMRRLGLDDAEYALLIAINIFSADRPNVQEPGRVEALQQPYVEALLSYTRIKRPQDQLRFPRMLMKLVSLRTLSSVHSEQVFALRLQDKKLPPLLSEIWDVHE
Procedure: I. Ligand-Binding Test Procedure for Human LXRβ.
Receptor source: E. coli extracted from cells expressing biotinylated hLXRβ. Extract was made in a similar buffer as above, but with 50 mM TRIS.
Washed streptavidin and coated flash plates with wash buffer. Diluted receptor extract to give Bmax˜4000 cpm and add to the wells. Wrapped the plates in aluminum foil and stored them at +4° C. overnight.
(§1) Made a dilution series in DMSO of the test ligands. Made a 5 nM solution of the radioactive tracer in buffer. Mixed 250 μl diluted tracer with 5 μl of the test ligand from each concentration of the dilution series. Washed the receptor-coated flash plates. Added 200 μl per well of the ligand/radiolabel mixture to the receptor-coated flash plates. Wrapped the plates in aluminum foil and incubate at +4° C. over night.
Aspirated wells, and washed the flashed plates. Sealed the plate.
Measured the remaining radioactivity in the plate.

human LXRα = target: T2, human LXRα (Homo sapiens, UniProt Q13133); assay: Ligand-binding test procedure for human LXRα (3H T0901317 tracer, flash plates); conditions: biotinylated hLXRα, tracer 3H T0901317, +4° C. over night
T2 construct: biotin (biotinylated); made in house; host or cells: E. coli
T2 sequence (Q13133 1-447): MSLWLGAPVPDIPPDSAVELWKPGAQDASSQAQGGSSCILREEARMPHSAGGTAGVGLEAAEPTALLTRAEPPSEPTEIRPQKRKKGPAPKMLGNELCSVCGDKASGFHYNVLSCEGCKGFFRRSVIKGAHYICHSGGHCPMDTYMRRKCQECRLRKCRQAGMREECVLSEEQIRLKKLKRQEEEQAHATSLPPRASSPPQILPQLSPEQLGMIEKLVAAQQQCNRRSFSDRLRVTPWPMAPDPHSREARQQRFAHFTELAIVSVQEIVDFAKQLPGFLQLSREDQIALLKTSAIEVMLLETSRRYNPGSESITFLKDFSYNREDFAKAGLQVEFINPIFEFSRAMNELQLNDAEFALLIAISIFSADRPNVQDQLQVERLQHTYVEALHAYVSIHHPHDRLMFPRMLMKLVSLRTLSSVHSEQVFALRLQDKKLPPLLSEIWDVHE
Procedure: II. Ligand-Binding Test Procedure for Human LXRα.
Receptor source: E. coli extract from cells expressing biotinylated hLXRα. Extract was made in a similar buffer as above, but with 50 mM TRIS.
Washed streptavidin and coated flash plates with wash buffer. Diluted receptor extract to give Bmax˜4000 cpm and add to the wells. Wrapped the plates in aluminum foil and stored them at +4° C. over night.
as §1
Aspirated wells, and wash the flashed plates. Sealed the plate. Measured the remaining radioactivity in the plate.

Cc1nc2cccc(C(F)(F)F)c2nc1-c1ccc(-c2cncc(S(C)(=O)=O)c2)cc1 [Example 73, 2-methyl-3-{4-[5-(methylsulfonyl)pyridin-3-yl]phenyl}-5-(trifluoromethyl)quinoxaline]
IC50 (human LXRβ): 123 nM | IC50 (human LXRα): > 1000 nM

CS(=O)(=O)c1cccc(Oc2cccc(-c3cnc4c(Cl)cccc4n3)c2)c1 [Example 8, 5-chloro-2-{3-[3-(methylsulfonyl)phenoxy]phenyl}quinoxaline]
IC50 (human LXRβ): 1650 nM | IC50 (human LXRα): > 1000 nM

CCS(=O)(=O)c1cccc(Oc2ccc(Cl)c(-c3nc4c(C(F)(F)F)cccc4nc3C)c2)c1 [Example 61, 3-{2-chloro-5-[3-(ethylsulfonyl)phenoxy]phenyl}-2-methyl-5-(trifluoromethyl)quinoxaline]
IC50 (human LXRβ): 29 nM | IC50 (human LXRα): 366 nM

Cc1nc2cccc(C(F)(F)F)c2nc1-c1cc(Oc2cc(Cl)cc(S(C)(=O)=O)c2)ccc1Cl [Example 65, 3-{2-chloro-5-[3-chloro-5-(methylsulfonyl)phenoxy]phenyl}-2-methyl-5-(trifluoromethyl)-quinoxaline]
IC50 (human LXRβ): 453 nM | IC50 (human LXRα): > 1000 nM

Cc1nc2c(C(F)(F)F)cccc2nc1-c1ccc(Oc2cccc(S(C)(=O)=O)c2)cc1 [Example 12, 3-methyl-2-{4-[3-(methylsulfonyl)phenoxy]phenyl}-5-(trifluoromethyl)quinoxaline]
IC50 (human LXRβ): 6400 nM | IC50 (human LXRα): > 1000 nM

Cc1nc2cccc(C(F)(F)F)c2nc1-c1cccc(Oc2cccc(S(C)(=O)=O)c2)c1 [Example 3, 2-methyl-3-{3-[3-(methylsulfonyl)phenoxy]phenyl}-5-(trifluoromethyl)quinoxaline]
IC50 (human LXRβ): 251 nM | IC50 (human LXRα): 1290 nM

Cc1nc2c(C(F)(F)F)cccc2nc1-c1cc(Oc2cccc(S(=O)(=O)CCCF)c2)ccc1Cl [Example 75, 2-(2-chloro-5-{3-[(3-fluoropropyl)sulfonyl]phenoxy}phenyl)-3-methyl-5-(trifluoromethyl)-quinoxaline]
IC50 (human LXRβ): 287 nM | IC50 (human LXRα): 2190 nM

Cc1nc2cccc(C#N)c2nc1-c1ccc(-c2cccc(S(C)(=O)=O)c2)cc1 [Example 72, 2-methyl-3-[3′-(methylsulfonyl)biphenyl-4-yl]quinoxaline-5-carbonitrile]
IC50 (human LXRβ): 3020 nM | IC50 (human LXRα): > 1000 nM

Cc1nc2cccc(C(F)(F)F)c2nc1-c1ccc(-c2cccc(S(C)(=O)=O)c2)cc1 [Example 4, 2-methyl-3-[3′-(methylsulfonyl)biphenyl-4-yl]-5-(trifluoromethyl)quinoxaline]
IC50 (human LXRβ): 373 nM | IC50 (human LXRα): > 1000 nM

CS(=O)(=O)c1cccc(Oc2cccc(-c3cnc4cccc(C(F)(F)F)c4n3)c2)c1 [Example 9, 2-{3-[3-(methylsulfonyl)phenoxy]phenyl}-8-(trifluoromethyl)quinoxaline]
IC50 (human LXRβ): 1960 nM | IC50 (human LXRα): > 1000 nM

Cc1nc2c(C(F)(F)F)cccc2nc1-c1cc(Oc2cccc(S(=O)(=O)C(C)C)c2)ccc1Cl [Example 57, 2-(2-chloro-5-{3-[(1-methylethyl)sulfonyl]phenoxy}phenyl)-3-methyl-5-(trifluoromethyl)-quinoxaline]
IC50 (human LXRβ): 78.9 nM | IC50 (human LXRα): 947 nM

Cc1nc2c(C(F)(F)F)cccc2nc1-c1cccc(Oc2cccc(S(C)(=O)=O)c2)c1 [Example 2, 3-methyl-2-{3-[3-(methylsulfonyl)phenoxy]phenyl}-5-(trifluoromethyl)quinoxaline]
IC50 (human LXRβ): 127 nM | IC50 (human LXRα): 1020 nM

Cc1nc2cccc(C(F)(F)F)c2nc1-c1ccc(Oc2cccc(S(C)(=O)=O)c2)cc1 [Example 7, 2-methyl-3-{4-[3-(methylsulfonyl)phenoxy]phenyl}-5-(trifluoromethyl)quinoxaline]
IC50 (human LXRβ): 1550 nM | IC50 (human LXRα): > 1000 nM

Cc1nc2c(C(F)(F)F)cccc2nc1-c1cc(Oc2cc(F)cc(S(C)(=O)=O)c2)ccc1Cl [Example 59, 2-{2-chloro-5-[3-fluoro-5-(methylsulfonyl)phenoxy]phenyl}-3-methyl-5-(trifluoromethyl)-quinoxaline]
IC50 (human LXRβ): 32 nM | IC50 (human LXRα): 249 nM

Cc1nc2ccccc2nc1-c1cc(Oc2cccc(S(C)(=O)=O)c2)ccc1Cl [Example 66, 2-{2-chloro-5-[3-(methylsulfonyl)phenoxy]phenyl}-3-methylquinoxaline]
IC50 (human LXRβ): 361 nM | IC50 (human LXRα): > 1000 nM

Cc1nc2cccc(C(F)(F)F)c2nc1-c1cc(Oc2cccc(S(C)(=O)=O)c2)ccc1Cl [Example 37, 3-{2-chloro-5-[3-(methylsulfonyl)phenoxy]phenyl}-2-methyl-5-(trifluoromethyl)quinoxaline]
IC50 (human LXRβ): 37 nM | IC50 (human LXRα): 557 nM

Cc1nc2c(Cl)cccc2nc1Oc1ccc(-c2cccc(NS(C)(=O)=O)c2)cc1 [Example 93, N-{4′-[(5-chloro-3-methylquinoxalin-2-yl)oxy]biphenyl-3-yl}methanesulfonamide]
IC50 (human LXRβ): 869 nM | IC50 (human LXRα): 3530 nM

CS(=O)(=O)c1cccc(-c2cccc(Oc3cnc4c(Cl)cccc4n3)c2)c1 [Example 78, 5-chloro-2-{[3′-(methylsulfonyl)biphenyl-3-yl]oxy}quinoxaline]
IC50 (human LXRβ): 263 nM | IC50 (human LXRα): > 1000 nM

Cc1nc2c(Cl)cccc2nc1-c1cccc(Oc2cccc(S(C)(=O)=O)c2)c1 [Example 5, 5-chloro-3-methyl-2-{3-[3-(methylsulfonyl)phenoxy]phenyl}quinoxaline]
IC50 (human LXRβ): 390 nM | IC50 (human LXRα): > 1000 nM

Cc1nc2cccc(C(F)(F)F)c2nc1-c1cc(Oc2cc(F)cc(S(C)(=O)=O)c2)ccc1Cl [Example 64, 3-{2-chloro-5-[3-fluoro-5-(methylsulfonyl)phenoxy]phenyl}-2-methyl-5-(trifluoromethyl)-quinoxaline]
IC50 (human LXRβ): 89 nM | IC50 (human LXRα): 638 nM

Cc1nc2c(C(F)(F)F)cccc2nc1-c1cc(Oc2cccc(S(=O)(=O)CCCCl)c2)ccc1Cl [Example 76, 2-(2-chloro-5-{3-[(3-chloropropyl)sulfonyl]phenoxy}phenyl)-3-methyl-5-(trifluoromethyl)-quinoxaline]
IC50 (human LXRβ): 204 nM | IC50 (human LXRα): 401 nM

Cc1nc2c(C(F)(F)F)cccc2nc1-c1cc(Oc2cccc(S(C)(=O)=O)c2)ccc1Cl [Example 36, 2-{2-chloro-5-[3-(methylsulfonyl)phenoxy]phenyl}-3-methyl-5-(trifluoromethyl)quinoxaline]
IC50 (human LXRβ): 19.5 nM | IC50 (human LXRα): 292 nM

CS(=O)(=O)c1cccc(-c2ccc(Oc3cnc4c(Cl)cccc4n3)cc2)c1 [Example 79, 5-chloro-2-{[3′-(methylsulfonyl)biphenyl-4-yl]oxy}quinoxaline]
IC50 (human LXRβ): > 1000 nM | IC50 (human LXRα): > 1000 nM

Cc1nc2c(C(F)(F)F)cccc2nc1-c1cc(Oc2ccccc2S(C)(=O)=O)ccc1Cl [Example 46, 2-{2-chloro-5-[2-(methylsulfonyl)phenoxy]phenyl}-3-methyl-5-(trifluoromethyl)quinoxaline]
IC50 (human LXRβ): 1460 nM | IC50 (human LXRα): 1620 nM

CCS(=O)(=O)c1cccc(-c2cccc(Oc3nc4cccc(Cl)c4nc3C)c2)c1 [Example 81, 5-chloro-2-{[3′-(ethylsulfonyl)biphenyl-3-yl]oxy}-3-methylquinoxaline]
IC50 (human LXRβ): 240 nM | IC50 (human LXRα): > 1000 nM

CCS(=O)(=O)c1cccc(Oc2ccc(Cl)c(-c3nc4cccc(C(F)(F)F)c4nc3C)c2)c1 [Example 56, 2-{2-chloro-5-[3-(ethylsulfonyl)phenoxy]phenyl}-3-methyl-5-(trifluoromethyl)quinoxaline]
IC50 (human LXRβ): 12 nM | IC50 (human LXRα): 435 nM

Source: patent US20100120778A1, “QUINOXALINE-BASED LXR MODULATORS” (Wyeth, priority 2008, published 2010)
